Test results reported in patent publication US11186594B2, “Podophyllotoxin derivatives and their use” (California Pacific Medical Center, priority 2015, dated 2021).

Experiments:
[1] = tested on: VM46 Human Colon Cancer Cells Overexpressing Multi-drug Resistant Gene 1; assay: Colony formation assay, VM46; type: cell-based; conditions: 50% inhibition of colony formation; 72 hours with drug; colonies counted after 14 days
Description: (§1) Cancer cells were plated in 60 mm Petri dishes containing 2.7 ml of medium (modified McCoy's 5a medium containing 10% fetal bovine serum and 100 units/ml penicillin and 100 ug/ml streptomycin). The cells were incubated in a CO2 incubator at 37 degree C. for 5 hours for attachment to the bottom of Petri dishes. Drugs were made up fresh in medium at ten times the final concentration, and then 0.3 ml of this stock solution was added to the 2.7 ml of medium in the dish. The cells were then incubated with drugs for 72 hours at 37 degree C. At the end of incubation the drug-containing media were decanted, the dishes were rinsed with 4 ml of Hank's Balance Salt Solution (HBSS), 5 ml of fresh medium was added, and the dishes were returned to the incubator for colony formation. The cell colonies were counted using colony counter after incubation for 7 days (HCT116 cell line), 14 days (VM46 cell line) and 15 days (H23 cell line). Cell survival (%) was calculated from 3 repeated dishes for each drug concentration and the mean values of IC50 (the drug concentration producing 50% inhibition of colony formation) were determined for each tested compound.

[2] = tested on: HCT116 Human Colon Cancer Cells; assay: Colony formation assay, HCT116; type: cell-based; conditions: 50% inhibition of colony formation; 72 hours with drug; colonies counted after 7 days
Description: as §1

[3] = tested on: H23 Human Non-small Cell Lung Cancer Cells; assay: Colony formation assay, H23; type: cell-based; conditions: 50% inhibition of colony formation; 72 hours with drug; colonies counted after 15 days
Description: as §1

[4] = Toxicity study (MTD) in normal mice; type: in vivo, C3H female normal mice; conditions: single i.p. injection, mice checked daily for 40 days (MTD40)
Description: In the toxicity studies, 2 C3H female normal mice were dosed with compounds N1-4 (N1, N2, N3, and N4) at low and moderate doses of 40 and 100 mg/kg. Since no severe and irreversible toxicity occurred at these doses, a new pair of animals was initiated at 120 mg/kg which was 1.2 times higher than 100 mg/kg. Sequential dosages (ie. 2 mice for each drug dose) were increased by a factor of 1.2-1.5 until irreversible toxicity was observed (animal became emaciated; animal underwent rapid weight loss (cachexia) (20%) within several (2-4) days)(euthanasia was required) occurred. Then another pair of animals was initiated at the highest nontoxic dosage, and successive dosages were increased by a factor of 1.15. […] Six mice were dosed at each dosage. If no irreversible toxicity occurred at the lower dosage and at least one with irreversible toxicity at the higher dose, then the lower dose was considered to be the MTD. HCL salts of N1-4 were formulated in a solution of ethanol:Cremophor EL:0.2M NaAc:saline (5:5:10:80) with a final pH of 5.0-5.5. N1-4 bases were formulated in a solution of ethanol: Cremophor EL:saline (5:5:90). All compounds were administered to C3H female normal mice by a single i.p. injection at a volume of 0.5 ml/20 g mouse. Drug toxicity was evaluated on mice checked daily for 40 days. The toxicity parameters reported were the MTD40. […] At the end of experiment, all mice were euthanized.

[5] = tested on: HCT116 human colon cancer xenograft; assay: Subcutaneous HCT116 human colon cancer xenograft model; type: in vivo, Mus Musculus (BALB/c nude)
Description: Each mouse was inoculated subcutaneously with 5×10^6 HCT116 tumor cells in 0.1 ml PBS for tumor development. Treatments were started when the tumor volume reached 100 mm^3. […] Body weight and tumor volume were measured twice a week.

[6] = Toxicity studies (MTD) in Cynomolgus monkeys; type: in vivo
[7] = tested on: K562 human chronic myeloid leukemia xenograft; assay: Subcutaneous K562 human chronic myeloid leukemia xenograft model; conditions: 300 mg/kg ip Days 8, 11, 14
[8] = tested on: COLO205 human colon cancer xenograft; assay: Subcutaneous COLO205 human colon cancer xenograft model; type: in vivo, Mus Musculus (BALB/c nude); conditions: 125 mg/kg i.p. q3d×3, day 29
Description: Each mouse was inoculated subcutaneously with 5×10^6 COLO205 tumor cells in 0.1 ml PBS for tumor development. Treatments were started when the tumor volume reached 120 mm^3. […] Body weight and tumor volume were measured twice a week.

[9] = Rat MTD study; type: in vivo, Sprague-Dawley rats
Description: In the rat MTD study, Sprague-Dawley rats were dosed with 801 HCl at a concentration of 6 mg/ml via intravenous infusion or slow intravenous injection. The MTD of 801 in normal rats was 120 mg/kg/day. In the 7-day repeating dose study, the rats were administered with […] via BID slow IV injection for 7 days.

SMILES: CCc1c2c(nc3ccc(O)c(CN(C)C)c13)-c1cc3c(c(=O)n1C2)COC(=O)C3(CC)OC(=O)COc1ccc(C(=O)OC2c3cc4c(cc3C(c3cc(OC)c(OC)c(OC)c3)C3C(=O)OCC23)OCO4)cc1 (stereo not drawn) [Compound N4]
- IC50 [1]: 5 nM
- IC50 [2]: 6.6 nM
- IC50 [3]: 12.9 nM
- MTD Values [4]: 250 mg/kg

SMILES: CCc1c2c(nc3ccc(O)c(CN(C)C)c13)-c1cc3c(c(=O)n1C2)COC(=O)C3(CC)OC(=O)COc1ccc(C(=O)OC2c3cc4c(cc3C(c3cc(OC)c(OC)c(OC)c3)C3C(=O)OCC23)OCO4)cc1.Cl (stereo not drawn) [N4 HCL Salt]
- MTD Values [4]: 180 mg/kg

SMILES: CCc1c2c(nc3ccc(OC(=O)N4CCC(N5CCCCC5)CC4)cc13)-c1cc3c(c(=O)n1C2)COC(=O)C3(CC)OC(=O)COc1ccc(C(=O)OC2c3cc4c(cc3C(c3cc(OC)c(OC)c(OC)c3)C3C(=O)OCC23)OCO4)cc1.Cl (stereo not drawn) [N3 HCL Salt]
- MTD Values [4]: 144 mg/kg

SMILES: CCC1(OC(=O)COc2ccc(C(=O)OC3c4cc5c(cc4C(c4cc(OC)c(OC)c(OC)c4)C4C(=O)OCC34)OCO5)cc2)C(=O)OCc2c1cc1n(c2=O)Cc2cc3c(CN(C)C)c(O)ccc3nc2-1.Cl (stereo not drawn) [N1 HCL Salt]
- MTD Values [4]: 120 mg/kg

SMILES: CCc1c2c(nc3ccc(OC(=O)N4CCC(N5CCCCC5)CC4)cc13)-c1cc3c(c(=O)n1C2)COC(=O)[C@]3(O)CC [Irinotecan, reference compound]
- body weight loss ([5]; during the treatment period, doses of the study groups): 8%

SMILES: CC[C@@]1(OC(=O)COc2ccc(C(=O)O[C@H]3c4cc5c(cc4[C@@H](c4cc(OC)c(OC)c(OC)c4)[C@H]4C(=O)OC[C@@H]43)OCO5)cc2)C(=O)OCc2c1cc1n(c2=O)Cc2cc3cc(OC(=O)N4CCC(N5CCCCC5)CC4)ccc3nc2-1.Cl [Compound 801-HCl]
- MTD for repeating dosing ([6]; 5-day repeat dose, intravenous infusion): 30 mg/kg/day
- MTD ([6]; intravenous infusion twice daily with a 5-hour interval): 60 mg/kg/day
- TGI (Day 25) [7]: 98%
- Mean Tumor Volume ([7]; Day 8 after tumor inoculation): 159 ± 6 mm^3
- Mean Tumor Volume ([7]; Day 11): 221 ± 27 mm^3
- Mean Tumor Volume ([7]; Day 14): 164 ± 6 mm^3
- Mean Tumor Volume ([7]; Day 18): 47 ± 7 mm^3
- Mean Tumor Volume ([7]; Day 21): 39 ± 6 mm^3
- Mean Tumor Volume ([7]; Day 25): 74 ± 12 mm^3
- Mean Tumor Volume ([7]; Day 25, listed as 801-HCI): 74 ± 2 mm^3
- Mean Tumor Volume ([7]; Day 28): 95 ± 19 mm^3
- CR ratio (ratio of complete regression) ([7]; complete remission by Day 21): 3/8
- maximum BW loss ([7]; next day after the 2nd dosing): 7.7%
- TGI ([5]; 125 mg/kg i.p. q3d×3, day 29): 93%
- MTD Values [4]: 300 mg/kg
- TGI [8]: 70%
- MTD ([9]; 6 mg/ml via intravenous infusion or slow intravenous injection, normal rats): 120 mg/kg/day

SMILES: CC[C@@]1(OC(=O)COc2ccc(C(=O)O[C@H]3c4cc5c(cc4[C@@H](c4cc(OC)c(OC)c(OC)c4)[C@H]4C(=O)OC[C@@H]43)OCO5)cc2)C(=O)OCc2c1cc1n(c2=O)Cc2cc3cc(OC(=O)N4CCC(N5CCCCC5)CC4)ccc3nc2-1 [N2 (801)]
- IC50 [1]: ~520 nM
- IC50 [2]: > 500 nM
- IC50 [3]: 462 nM
- MTD Values [4]: 300 mg/kg
- MTD for repeating dosing ([9]; 7-day repeating dose, BID slow IV injection): 60 mg/kg/day
